Test results published in US20260317324A1, “BIFUNCTIONAL COMPOUNDS FOR DEGRADING BRAF VIA UBIQUITIN PROTEOSOME PATHWAY” (Nurix Therapeutics, Inc., priority 2023, published 2026).

Assays:
Format in all cases: cell-based
BRAF V600E = target: T1, BRAF V600E (Homo sapiens, UniProt P15056, V600E); assay: BRAF HiBiT degradation assay, C-terminal HiBiT-tagged BRAF V600E A375 cells (clone 1F10), Nano-Glo HiBiT Lytic assay; conditions: A375 (BRAF V600E, Class 1); for DC50: DC50 at 50% degradation; for Dmax: A-375, observed Dmax, % protein degraded relative to DMSO control
T1 construct: endogenous C-terminal HiBiT fusion tag on BRAF V600E allele; endogenous in cells; host or cells: A375 clone 1F10 (CRISPR-Cas9 knock-in of the HiBiT tag; parental A375 from ATCC)
T1 sequence (P15056 whole entry V600E, the tested form may be a part): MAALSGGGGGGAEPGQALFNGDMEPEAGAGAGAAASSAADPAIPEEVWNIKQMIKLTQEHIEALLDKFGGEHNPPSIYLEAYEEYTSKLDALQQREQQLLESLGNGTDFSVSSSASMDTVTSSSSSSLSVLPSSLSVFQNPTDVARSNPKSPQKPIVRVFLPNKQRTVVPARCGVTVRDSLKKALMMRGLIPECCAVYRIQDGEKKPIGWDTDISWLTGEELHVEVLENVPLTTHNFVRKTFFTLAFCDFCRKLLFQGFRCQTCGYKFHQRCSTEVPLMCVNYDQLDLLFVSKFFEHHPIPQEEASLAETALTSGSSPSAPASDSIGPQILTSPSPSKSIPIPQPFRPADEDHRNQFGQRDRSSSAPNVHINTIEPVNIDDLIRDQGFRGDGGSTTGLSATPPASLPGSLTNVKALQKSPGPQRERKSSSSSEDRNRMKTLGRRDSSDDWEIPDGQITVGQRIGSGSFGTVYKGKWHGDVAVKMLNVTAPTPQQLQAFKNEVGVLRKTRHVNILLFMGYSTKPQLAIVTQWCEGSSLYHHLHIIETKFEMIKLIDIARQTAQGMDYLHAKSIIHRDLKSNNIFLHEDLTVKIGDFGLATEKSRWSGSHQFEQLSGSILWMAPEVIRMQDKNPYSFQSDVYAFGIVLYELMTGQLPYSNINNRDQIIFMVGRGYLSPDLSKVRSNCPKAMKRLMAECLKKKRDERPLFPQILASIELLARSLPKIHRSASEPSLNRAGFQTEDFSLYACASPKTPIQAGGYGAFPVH
Method in brief: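 A375 cells with CRISPR knock-in C-terminal HiBiT on endogenous BRAF V600E (clone 1F10) were seeded and cultured 24 h at 37 °C, then dosed with an 11-point half-log series (1 μM to 0.01 nM, duplicate, 0.2% DMSO). Lytic HiBiT luminescence gave % protein remaining; DC50 was the fitted concentration at 50%.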

BRAF G469A = target: T2, BRAF G469A (Homo sapiens, UniProt P15056, G469A); assay: BRAF HiBiT degradation assay, C-terminal HiBiT-tagged BRAF G469A overexpressed in HCT-116 BRAF−/− cells (clone 34), Nano-Glo HiBiT Lytic assay; conditions: BRAF G469A (Class 2), HCT-116 BRAF−/− cells; for DC50: DC50 at 50% degradation; for Dmax: observed Dmax relative to DMSO control
T2 construct: Horizon Discovery (HCT-116 BRAF−/− cells); host or cells: HCT-116 BRAF−/− cells, clone 34, lentiviral transduction
T2 sequence (P15056 whole entry G469A): as the sequence (P15056 whole entry V600E, the tested form may be a part) above, with G469A, E600V counted along it
Method in brief: (§1)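 HCT-116 BRAF−/− cells stably expressing the tagged mutant were seeded at 3,000 cells/well and grown 24 h at 37 °C before an 11-point half-log series from 1 μM to 0.01 nM, run in duplicate at 0.2% DMSO. Lytic HiBiT luminescence gave % protein remaining versus DMSO controls; DC50 was the fitted concentration at 50%.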

BRAF G466V = target: T3, BRAF G466V (Homo sapiens, UniProt P15056, G466V); assay: BRAF HiBiT degradation assay, C-terminal HiBiT-tagged BRAF G466V overexpressed in HCT-116 BRAF−/− cells (clone 8), Nano-Glo HiBiT Lytic assay; conditions: BRAF G466V (Class 3), HCT-116 BRAF−/− cells; for DC50: DC50 at 50% degradation; for Dmax: observed Dmax relative to DMSO control
T3 construct: Horizon Discovery (HCT-116 BRAF−/− cells); host or cells: HCT-116 BRAF−/− cells, clone 8, lentiviral transduction
T3 sequence (P15056 whole entry G466V): as the sequence (P15056 whole entry V600E, the tested form may be a part) above, with G466V, E600V counted along it
Method in brief: as §1

BRAF D594G = target: T4, BRAF D594G (Homo sapiens, UniProt P15056, D594G); assay: BRAF HiBiT degradation assay, C-terminal HiBiT-tagged BRAF D594G overexpressed in HCT-116 BRAF−/− cells (clone 63), Nano-Glo HiBiT Lytic assay; conditions: BRAF D594G (Class 3), HCT-116 BRAF−/− cells; for DC50: DC50 at 50% degradation; for Dmax: observed Dmax relative to DMSO control
T4 construct: Horizon Discovery (HCT-116 BRAF−/− cells); host or cells: HCT-116 BRAF−/− cells, clone 63, lentiviral transduction
T4 sequence (P15056 whole entry D594G): as the sequence (P15056 whole entry V600E, the tested form may be a part) above, with D594G, E600V counted along it
Method in brief: as §1

DC50 (BRAF V600E) [µM] | Dmax (BRAF V600E) [%] | DC50 (BRAF G469A) [µM] | Dmax (BRAF G469A) [%] | DC50 (BRAF G466V) [µM] | Dmax (BRAF G466V) [%] | DC50 (BRAF D594G) [µM] | Dmax (BRAF D594G) [%] | Structure (SMILES)
0.05 to 0.5 | > 70 | > 0.5 | 30 to 70 | 0.05 to 0.5 | 30 to 70 | 0.01 to 0.05 | 30 to 70 | CCN(C)S(=O)(=O)Nc1cccc(-c2cn(-c3ccc(N4CCN(CC5CCN(c6ccc([C@@H]7CCC(=O)NC7=O)cn6)CC5)CC4)c(F)c3)nc2-c2ccncc2)c1F [Compound 380, (3S)-3-(6-{4-[(4-{4-[4-(3-{[ethyl(methyl)sulfamoyl]amino}-2-fluorophenyl)-3-(pyridin-4-yl)-1H-pyrazol-1-yl]-2-fluorophenyl}piperazin-1-yl)methyl]piperidin-1-yl}pyridin-3-yl)piperidine-2,6-dione]
< 0.01 | > 70 | 0.01 to 0.05 | > 70 | < 0.01 | > 70 | < 0.01 | > 70 | O=C1CC[C@@H](c2ccc(N3CCC(CN4CCN(c5ccc(-n6cc(-c7cc(Cl)cc(NS(=O)(=O)N8CCCC8)c7F)c(-c7ccncc7)n6)nc5)CC4)CC3)nc2)C(=O)N1 [Compound 383, N-{5-chloro-3-[1-(5-{4-[(1-{5-[(3S)-2,6-dioxopiperidin-3-yl]pyridin-2-yl}piperidin-4-yl)methyl]piperazin-1-yl}pyridin-2-yl)-3-(pyridin-4-yl)-1H-pyrazol-4-yl]-2-fluorophenyl}pyrrolidine-1-sulfonamide]
0.01 to 0.05 | > 70 | > 0.5 | 30 to 70 | 0.01 to 0.05 | 30 to 70 | > 0.5 | 30 to 70 | O=C1CC[C@@H](c2ccc(N3CCC(CN4CCN(c5ccc(-n6cc(-c7cc(Cl)cc(NS(=O)(=O)N8CCCC8)c7F)c(-c7ccncc7)n6)cc5)CC4)CC3)cc2F)C(=O)N1 [Compound 384, N-{5-chloro-3-[1-(4-{4-[(1-{4-[(3S)-2,6-dioxopiperidin-3-yl]-3-fluorophenyl}piperidin-4-yl)methyl]piperazin-1-yl}phenyl)-3-(pyridin-4-yl)-1H-pyrazol-4-yl]-2-fluorophenyl}pyrrolidine-1-sulfonamide]
< 0.01 | > 70 | 0.01 to 0.05 | 30 to 70 | < 0.01 | > 70 | < 0.01 | 30 to 70 | O=C1CCN(c2ccc(N3CCC(CN4CCN(c5ccc(-n6cc(-c7cc(Cl)cc(NS(=O)(=O)C8CCCC8)c7F)c(-c7ccncc7)n6)cc5)CC4)CC3)nc2)C(=O)N1 [Compound 388, N-[5-chloro-3-(1-{4-[4-({1-[5-(2,4-dioxo-1,3-diazinan-1-yl)pyridin-2-yl]piperidin-4-yl}methyl)piperazin-1-yl]phenyl}-3-(pyridin-4-yl)-1H-pyrazol-4-yl)-2-fluorophenyl]cyclopentanesulfonamide]
